Test results as given in US20260027190A1, “OVARIAN TUMOR DEUBIQUITINASE OXIDATION AND USES THEREOF” (The University of Vermont and State Agricultural College, priority 2022, published 2026).
Residues, ends and D or L forms follow the SMILES beside them. *: point of attachment. Cbz = O=C(OCc1ccccc1)*

How the values were obtained:
[1] = test system: mouse tracheal epithelial (MTE) cells; assay: Total GSH measurement (DTNB assay) in MTE cells; assay type: cell-based
Procedure: It has been previously shown that the pleotropic cytokine IL1B augments glycolysis in lung epithelial cells, and that interleukin 1B (IL1B) is linked to oxidative stress. The pentose phosphate pathway, an offshoot of glycolysis, regulates the redox environment by providing nicotinamide adenine dinucleotide phosphate (NADPH) reducing equivalents necessary for glutathione (GSH) homeostasis. The effects of GSH in response to IL1B were examined. Briefly, GSH was measured using a 5,5′-dithio-bis (2-nitrobenzoic acid) (DTNB) assay in both control and IL1B-stimulated mouse tracheal epithelial cells. […] Statistics on the left panel represent the total GSH levels, without differentiating between labeled and unlabeled portions of GSH (P-value*<0.05, ****<0.0001).
(§1) A regulator of GSH homeostasis is the transporter system xC-, which exports glutamate and concomitantly imports cystine in a 1:1 ratio. Once inside the cells, cystine is reduced to two cysteines, the latter being the rate limiting amino acid required for GSH synthesis. These relationships were examined further. […] To address whether IL1B-induced increases in GSH are system xC- dependent, two system xC- inhibitors, erastin (Er) and sulfasalazine (SAS) were used. Cells were pretreated for one hour, followed by IL1B treatment for 24 hours. Then, GSH levels were measured in cells exposed to increasing doses of Er or SAS (FIG. 2G). Extracellular glutamate levels in cell culture supernatant of cells pretreated with 0.5 micromolar Er (left) or 100 micromolar SAS (right) for 1 hour before IL1B stimulation were also measured (FIG. 2H). […] System xC- inhibition is known to induce ferroptosis, an iron-dependent mode of cell death characterized by increased lipid peroxidation. However, no changes in cell viability using erastin (5 micromolar) or sulfasalazine (500 micromolar) were detected (FIG. 2I; P-value*<0.05, ***<0.001, ****<0.0001).
(§2) Primary mouse tracheal epithelial (MTE) cells were isolated from C57BL/6NJ wild-type or C57BL6/NJ mice lacking Glrx1 gene and cultured. Cells were grown on collagen coated plastic plates or transwell inserts with media change every 2 days until confluency. For interleukin 1B (IL1B) treatment: cells were incubated in plain Dulbecco's Modified Eagle Medium (DMEM): F12 media containing 6 mM glucose and 2 mM glutamine overnight followed by stimulation with 10 ng/ml IL1B or 0.1% bovine serum albumin (BSA) in phosphate buffered saline (PBS) (vehicle control) for 24 hours. Treatment with crastin, sulfasalazine or BSO occurred 1 hour before IL1B stimulation. Media and cells were collected for further analysis. For growing H522 and OTUB1-CRISPR-H522 cells: Roswell Park Memorial Institute (RPMI) media supplemented with 10% fetal bovine serum (FBS) and 1% pen/strep was used to grow the cells. Plasmid over-expression and OTUB1 knock-down experiments were done when cells were 60-70% confluent.
Cell lysates were prepared in 100 mM potassium phosphate buffer containing 0.6% sulfosalicylic acid, 1 mM ethylenediaminetetraacetic acid (EDTA) and 0.01% triton-x-100. To measure total glutathione (GSH), equal amounts of proteins were incubated with 3 micromolar 5,5′-dithio-bis (2-nitrobenzoic acid) (DTNB) reagent and 2.25 microgram/ml glutathione reductase followed by the addition of 240 micromolar Nicotinamide adenine dinucleotide phosphate (NADPH). Kinetic absorbance was measured every minute at 412 nm for 20 minutes. […]

[2] = test system: mouse tracheal epithelial (MTE) cells; assay: Calcein AM cell viability in MTE cells; assay type: cell-based; conditions: sulfasalazine 500 micromolar
Text: Invitrogen Live/Dead viability/cytotoxicity kit was used to measure cell viability according to manufacturer's instruction. Data was expressed as percentage survival compared to control untreated cells.

[3] = test system: mouse tracheal epithelial (MTE) cells; assay: Extracellular glutamate in cell culture supernatant of MTE cells; assay type: cell-based
Text: as §1, §2
Glutamate in media was measured using Biovision kit following manufacturer's protocol.

SLC7A11 = SLC7A11 non-reducing Western blot in MTE cells; assay type: cell-based, mouse; conditions: MG132 5 micrograms/ml, 24 hours
Procedure: OTUB1 was previously shown to interfere with ubiquitination and subsequent proteasomal degradation of SLC7A11. A SLC7A11 non-reducing Western blot using MTE cells pretreated with 5 micrograms/ml MG132 or 10 ng/ml IL1B for 24 hours with ACTB used as a loading control was performed (FIG. 7A). In addition, an assessment of GSH levels in MG132-(5 micrograms/ml, 24 hours) (FIG. 7B, left) or bortezomib-(FIG. 7B, right) (0.3 micromolar, 24 hours) treated MTE cells was undertaken (P-value***<0.001, ****<0.0001). Extracellular glutamate levels in MG132-treated MTE cells were also assessed (5 micrograms/ml, 24 hours) (FIG. 7C) (P-value***<0.001, ****<0.0001). The proteasome inhibitors MG132 or bortezomib increased SCL7A11, GSH and extracellular glutamate levels in tracheal epithelial cells (FIGS. 7A-7C), identifying the importance of proteasomal degradation of SLC7A11 in regulating system xC- and glutathione levels.
Bio-Rad DC protein estimation kit was used to determine protein concentration in cell lysates. Equal amounts of proteins were resolved using sodium dodecyl sulfate (SDS)-polyacrylamide gel electrophoresis and transferred to polyvinylidene difluoride (PVDF) membranes, blocked in 5% BSA and incubated with primary antibodies overnight. Membranes were subsequently incubated with peroxidase-conjugated secondary antibodies for one hour and then visualized using chemiluminescence.

[4] = test system: mouse tracheal epithelial (MTE) cells; assay: Total PSSG in MTE cells treated with recombinant GLRX; assay type: cell-based; conditions: direct administration of recombinant protein to MTE cells
Procedure: OTUB1 was one of the PSSG targets detected in IL1B-stimulated epithelial cells raising the possibility that S-glutathionylation of OTUB1 affects the stability of SLC7A11. To investigate this, immunoprecipitation of GSH followed by Western Blotting of OTUB1 in MTE cells treated with vehicle or IL1B was performed. Dithiothreitol (DTT) was incubated with cell lysates prior to immunoprecipitation as a negative control. OTUB1 levels from whole cell lysates were used as the input control. Increases in OTUB1 S-glutathionylation (OTUB1-SSG) in response to IL1B were observed, with further increases occurring in cells lacking Glrx (FIG. 4G), consistent with the role of GLRX as a deglutathionylating enzyme. Western blots were performed using cells treated with the WT- or C23S-mutant GLRX recombinant protein to examine the presence of glutaredoxin (FIG. 4H) and total PSSG (FIG. 4I) (P-value*<0.05, **<0.01, ***<0.001, ****<0.0001). […] Glutathione was evaluated in MTE cells treated with recombinant WT- or C23S-mutant GLRX (FIG. 4J) and glutamate in cell culture supernatant of MTE cells treated with WT or the C23S mutant GLRX was also evaluated (FIG. 4K). […]
Cell lysates were prepared in 100 mM potassium phosphate buffer containing 0.6% sulfosalicylic acid, 1 mM ethylenediaminetetraacetic acid (EDTA) and 0.01% triton-x-100. […] Kinetic absorbance was measured every minute at 412 nm for 20 minutes. […]

OTUB1 = assay: OTUB1-SSG: GSH immunoprecipitation followed by OTUB1 Western blot; assay type: cell-based, mouse; conditions: cells treated with recombinant protein
Procedure: OTUB1 was one of the PSSG targets detected in IL1B-stimulated epithelial cells raising the possibility that S-glutathionylation of OTUB1 affects the stability of SLC7A11. To investigate this, immunoprecipitation of GSH followed by Western Blotting of OTUB1 in MTE cells treated with vehicle or IL1B was performed. Dithiothreitol (DTT) was incubated with cell lysates prior to immunoprecipitation as a negative control. OTUB1 levels from whole cell lysates were used as the input control. Increases in OTUB1 S-glutathionylation (OTUB1-SSG) in response to IL1B were observed, with further increases occurring in cells lacking Glrx (FIG. 4G), consistent with the role of GLRX as a deglutathionylating enzyme. Western blots were performed using cells treated with the WT- or C23S-mutant GLRX recombinant protein to examine the presence of glutaredoxin (FIG. 4H) and total PSSG (FIG. 4I) (P-value*<0.05, **<0.01, ***<0.001, ****<0.0001). GAPDH was used as a loading control. Glutathione was evaluated in MTE cells treated with recombinant WT- or C23S-mutant GLRX (FIG. 4J) and glutamate in cell culture supernatant of MTE cells treated with WT or the C23S mutant GLRX was also evaluated (FIG. 4K). […]

[5] = MG132 5 micrograms/ml, 24 hours, MTE cells
[6] = direct administration of recombinant protein to MTE cells

For CC(C)C[C@H](NC(=O)[C@H](Cc1ccccc1)NC(=O)c1cnccn1)B(O)O [bortezomib], the GSH levels ([1]; bortezomib 0.3 micromolar, 24 hours, MTE cells) was “increased”.

In the case of O=C(O)c1cc(/N=N/c2ccc(S(=O)(=O)Nc3ccccn3)cc2)ccc1O [sulfasalazine], the cell viability [2] is reported as “no changes”, the “IL1B-induced extracellular glutamate levels” value ([3]; MTE cells pretreated with 100 micromolar SAS for 1 hour before IL1B stimulation) is reported as “significantly decreased” and the “IL1B-induced increases in GSH” value ([1]; MTE cells pretreated 1 hour with increasing doses of Er or SAS, then IL1B 24 hours) is reported as “significantly decreased”.

For CC(C)C[C@@H](C=O)NC(=O)[C@H](CC(C)C)NC(=O)[C@H](CC(C)C)NC(=O)OCc1ccccc1 [MG132] (Cbz-Leu-Leu-Leu-aldehyde), the SLC7A11 levels (SLC7A11) was “increased”, the extracellular glutamate levels [3, 5] was “increased” and the GSH levels [1, 5] was “increased”.

B1: C23S GLRX: catalytically inactive C23S mutant GLRX recombinant protein (protein, UniProt P35754 2-106, looked up, variant C23S)
Glutaredoxin-1: AQEFVNCKIQPGKVVVFIKPTSPYCRRAQEILSQLPIKQGLLEFVDITATNHTNEIQDYLQQLTGARTVPRVFIGKDCIGGCSDLVSLQQSGELLTRLKQIGALQ
With B1 the “overall PSSG” value [4] was “did not elicit these effects”, the extracellular glutamate [3, 6] was “did not elicit these effects” and the GSH levels [1, 6] was “did not elicit these effects”. For the same molecule, the “OTUB1-SSG (OTUB1 S-glutathionylation)” value (OTUB1) was “not”.
